Measured values published in the supplement of paper PMC10883282.

What was measured:
Assay in all cases: relative viability vs DMSO control (72 h) (fraction); higher = more viable cells
[1] = test system: SK-ES-1
How it was run: (§1)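 Sarcoma cell lines went into 384-well plates at densities chosen to reach 80–90% confluence. After 24 h, each well received 2.5 µl of serially diluted compound, with source plates running from 10 mM to 0.0002 mM, and the plates were kept 72 h at 37 °C, 5% CO2, alongside 0.1% DMSO vehicle and a 5 µM positive control. Relative viability was derived from ATPLite readings as percent growth and averaged over up to triplicate wells. The data were then rescaled so that 1 stands for full and 0 for none.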

[2] = test system: G401
How it was run: as §1

[3] = test system: VA-ES-BJ
How it was run: as §1

[4] = test system: HT1080
How it was run: as §1

[5] = test system: SK-LMS-1
How it was run: as §1

[6] = test system: RD-ES
How it was run: as §1

[7] = test system: SW982
How it was run: as §1

[8] = test system: KHOS-NP
How it was run: as §1

[9] = test system: A204
How it was run: as §1

[10] = test system: HS729
How it was run: as §1

[11] = test system: SW684
How it was run: as §1

[12] = test system: SW872
How it was run: as §1

COc1cc(Nc2ncc3c(n2)-c2ccc(Cl)cc2C(c2c(F)cccc2OC)=NC3)ccc1C(=O)O [Alisertib]
Conditions | relative viability
[1], 0.00017 µM | 1.01
[1], 0.00051 µM | 1.05
[1], 0.00152 µM | 1.05
[1], 0.00457 µM | 1.01
[1], 0.01372 µM | 0.965
[1], 0.04115 µM | 0.748
[1], 0.1235 µM | 0.197
[1], 0.3704 µM | 0.0886
[1], 1.111 µM | 0.0443
[1], 3.333 µM | 0.0464
[1], 10 µM | 0.0555
[2], 0.00017 µM | 1.01
[2], 0.00051 µM | 0.979
[2], 0.00152 µM | 0.984
[2], 0.00457 µM | 0.966
[2], 0.01372 µM | 0.892
[2], 0.04115 µM | 0.845
[2], 0.1235 µM | 0.756
[2], 0.3704 µM | 0.706
[2], 1.111 µM | 0.705
[2], 3.333 µM | 0.637
[2], 10 µM | 0.563
[3], 0.00017 µM | 0.995
[3], 0.00051 µM | 0.997
[3], 0.00152 µM | 0.984
[3], 0.00457 µM | 0.992
[3], 0.01372 µM | 0.969
[3], 0.04115 µM | 0.919
[3], 0.1235 µM | 0.747
[3], 0.3704 µM | 0.604
[3], 1.111 µM | 0.571
[3], 3.333 µM | 0.523
[3], 10 µM | 0.505
[4], 0.00017 µM | 1.11
[4], 0.00051 µM | 1.07
[4], 0.00152 µM | 1.08
[4], 0.00457 µM | 1.06
[4], 0.01372 µM | 1.07
[4], 0.04115 µM | 0.994
[4], 0.1235 µM | 0.974
[4], 0.3704 µM | 0.876
[4], 1.111 µM | 0.766
[4], 3.333 µM | 0.715
[4], 10 µM | 0.668
[5], 0.00017 µM | 1.03
[5], 0.00051 µM | 1.02
[5], 0.00152 µM | 1.01
[5], 0.00457 µM | 1.02
[5], 0.01372 µM | 1
[5], 0.04115 µM | 0.806
[5], 0.1235 µM | 0.772
[5], 0.3704 µM | 0.78
[5], 1.111 µM | 0.803
[5], 3.333 µM | 0.815
[5], 10 µM | 0.678
[6], 0.00017 µM | 0.95
[6], 0.00051 µM | 0.964
[6], 0.00152 µM | 0.952
[6], 0.00457 µM | 0.909
[6], 0.01372 µM | 0.881
[6], 0.04115 µM | 0.747
[6], 0.1235 µM | 0.428
[6], 0.3704 µM | 0.256
[6], 1.111 µM | 0.213
[6], 3.333 µM | 0.243
[6], 10 µM | 0.236
[7], 0.00017 µM | 1.01
[7], 0.00051 µM | 1.01
[7], 0.00152 µM | 1.03
[7], 0.00457 µM | 1.02
[7], 0.01372 µM | 1.03
[7], 0.04115 µM | 0.968
[7], 0.1235 µM | 0.583
[7], 0.3704 µM | 0.464
[7], 1.111 µM | 0.37
[7], 3.333 µM | 0.348
[7], 10 µM | 0.361
[8], 0.00017 µM | 1.08
[8], 0.00051 µM | 1.1
[8], 0.00152 µM | 1.09
[8], 0.00457 µM | 1.08
[8], 0.01372 µM | 1.09
[8], 0.04115 µM | 1.07
[8], 0.1235 µM | 1.06
[8], 0.3704 µM | 1.05
[8], 1.111 µM | 0.951
[8], 3.333 µM | 0.925
[8], 10 µM | 0.672
[9], 0.00017 µM | 1.07
[9], 0.00051 µM | 1.073
[9], 0.00152 µM | 1.07
[9], 0.00457 µM | 1.03
[9], 0.01372 µM | 1.07
[9], 0.04115 µM | 1.06
[9], 0.1235 µM | 0.882
[9], 0.3704 µM | 0.796
[9], 1.111 µM | 0.768
[9], 3.333 µM | 0.7276
[9], 10 µM | 0.711
[10], 0.00017 µM | 0.938
[10], 0.00051 µM | 0.943
[10], 0.00152 µM | 0.932
[10], 0.00457 µM | 0.888
[10], 0.01372 µM | 0.859
[10], 0.04115 µM | 0.879
[10], 0.1235 µM | 0.793
[10], 0.3704 µM | 0.77
[10], 1.111 µM | 0.733
[10], 3.333 µM | 0.689
[10], 10 µM | 0.716
[11], 0.00017 µM | 1.16
[11], 0.00051 µM | 1.17
[11], 0.00152 µM | 1.18
[11], 0.00457 µM | 1.15
[11], 0.01372 µM | 1.1
[11], 0.04115 µM | 1.09
[11], 0.1235 µM | 1.01
[11], 0.3704 µM | 1.01
[11], 1.111 µM | 0.983
[11], 3.333 µM | 0.919
[11], 10 µM | 0.869
[12], 0.00017 µM | 1.02
[12], 0.00051 µM | 0.974
[12], 0.00152 µM | 0.989
[12], 0.00457 µM | 1.03
[12], 0.01372 µM | 1.01
[12], 0.04115 µM | 1.01
[12], 0.1235 µM | 0.959
[12], 0.3704 µM | 0.731
[12], 1.111 µM | 0.759
[12], 3.333 µM | 0.738
[12], 10 µM | 0.661

O=C(c1ccc(F)c(F)c1Nc1ccc(I)cc1F)N1CC(O)([C@@H]2CCCCN2)C1 [Cobimetinib]
Conditions | relative viability
[1], 0.00017 µM | 1.04
[1], 0.00051 µM | 1
[1], 0.00152 µM | 1.04
[1], 0.00457 µM | 1.03
[1], 0.01372 µM | 1.04
[1], 0.04115 µM | 1.01
[1], 0.1235 µM | 1.02
[1], 0.3704 µM | 0.982
[1], 1.111 µM | 0.923
[1], 3.333 µM | 0.842
[1], 10 µM | 0.0122
[2], 0.00017 µM | 0.99
[2], 0.00051 µM | 1.03
[2], 0.00152 µM | 0.993
[2], 0.00457 µM | 0.99
[2], 0.01372 µM | 0.951
[2], 0.04115 µM | 0.896
[2], 0.1235 µM | 0.786
[2], 0.3704 µM | 0.643
[2], 1.111 µM | 0.396
[2], 3.333 µM | 0.0971
[2], 10 µM | 0.0011
[3], 0.00017 µM | 1.05
[3], 0.00051 µM | 1.07
[3], 0.00152 µM | 1.05
[3], 0.00457 µM | 1.02
[3], 0.01372 µM | 0.982
[3], 0.04115 µM | 0.906
[3], 0.1235 µM | 0.747
[3], 0.3704 µM | 0.638
[3], 1.111 µM | 0.567
[3], 3.333 µM | 0.451
[3], 10 µM | 0.209
[4], 0.00017 µM | 1.07
[4], 0.00051 µM | 1.087
[4], 0.00152 µM | 1.067
[4], 0.00457 µM | 1.049
[4], 0.01372 µM | 1.06
[4], 0.04115 µM | 0.876
[4], 0.1235 µM | 0.586
[4], 0.3704 µM | 0.4917
[4], 1.111 µM | 0.39
[4], 3.333 µM | 0.247
[4], 10 µM | 0.0054
[5], 0.00017 µM | 1.06
[5], 0.00051 µM | 1.09
[5], 0.00152 µM | 1.05
[5], 0.00457 µM | 1.02
[5], 0.01372 µM | 0.989
[5], 0.04115 µM | 0.767
[5], 0.1235 µM | 0.584
[5], 0.3704 µM | 0.398
[5], 1.111 µM | 0.299
[5], 3.333 µM | 0.1728
[5], 10 µM | 0.0129
[6], 0.00017 µM | 0.999
[6], 0.00051 µM | 1.02
[6], 0.00152 µM | 0.985
[6], 0.00457 µM | 0.986
[6], 0.01372 µM | 0.945
[6], 0.04115 µM | 0.979
[6], 0.1235 µM | 0.955
[6], 0.3704 µM | 0.982
[6], 1.111 µM | 0.974
[6], 3.333 µM | 0.91
[6], 10 µM | 0.0147
[7], 0.00017 µM | 1.04
[7], 0.00051 µM | 1.02
[7], 0.00152 µM | 1
[7], 0.00457 µM | 1.01
[7], 0.01372 µM | 0.98
[7], 0.04115 µM | 0.942
[7], 0.1235 µM | 0.878
[7], 0.3704 µM | 0.804
[7], 1.111 µM | 0.765
[7], 3.333 µM | 0.578
[7], 10 µM | 0.0118
[8], 0.00017 µM | 1.09
[8], 0.00051 µM | 1.097
[8], 0.00152 µM | 1.085
[8], 0.00457 µM | 1.081
[8], 0.01372 µM | 1.08
[8], 0.04115 µM | 0.912
[8], 0.1235 µM | 0.438
[8], 0.3704 µM | 0.319
[8], 1.111 µM | 0.275
[8], 3.333 µM | 0.28
[8], 10 µM | 0.187
[9], 0.00017 µM | 1.1
[9], 0.00051 µM | 1.11
[9], 0.00152 µM | 1.12
[9], 0.00457 µM | 1.11
[9], 0.01372 µM | 1.079
[9], 0.04115 µM | 1.04
[9], 0.1235 µM | 1.01
[9], 0.3704 µM | 0.807
[9], 1.111 µM | 0.616
[9], 3.333 µM | 0.424
[9], 10 µM | 0.0102
[10], 0.00017 µM | 0.9644
[10], 0.00051 µM | 1
[10], 0.00152 µM | 0.97
[10], 0.00457 µM | 0.962
[10], 0.01372 µM | 0.915
[10], 0.04115 µM | 0.922
[10], 0.1235 µM | 0.876
[10], 0.3704 µM | 0.852
[10], 1.111 µM | 0.763
[10], 3.333 µM | 0.6553
[10], 10 µM | 0.241
[11], 0.00017 µM | 1.23
[11], 0.00051 µM | 1.15
[11], 0.00152 µM | 1.17
[11], 0.00457 µM | 1.2
[11], 0.01372 µM | 1.13
[11], 0.04115 µM | 1.063
[11], 0.1235 µM | 0.941
[11], 0.3704 µM | 0.738
[11], 1.111 µM | 0.536
[11], 3.333 µM | 0.357
[11], 10 µM | -0.00433
[12], 0.00017 µM | 1.06
[12], 0.00051 µM | 1.01
[12], 0.00152 µM | 0.923
[12], 0.00457 µM | 0.775
[12], 0.01372 µM | 0.67
[12], 0.04115 µM | 0.622
[12], 0.1235 µM | 0.606
[12], 0.3704 µM | 0.574
[12], 1.111 µM | 0.498
[12], 3.333 µM | 0.39
[12], 10 µM | 0.00283
